Data: patent US8952024B2, “Herbicidal pyrimidone derivatives” (E I du Pont de Nemours and Company, priority 2009, dated 2015)

Legend:
Test in all cases: Test D pre-/postemergence plant response
Format in all cases: in vivo
[1] = tested on: Surinam grass (Brachiaria decumbens)
Procedure, shortened: (§1)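 Pre + post applications; loam/sand soil; solvent + surfactant vehicle; post-em plants 1- to 4-leaf (2–18 cm); greenhouse 14–21 d; visual score 0 (none) to 100 (full control) vs untreated.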

[2] = tested on: nutsedge (purple nutsedge, Cyperus rotundus)
Procedure, shortened: as §1

[3] = tested on: chickweed (common chickweed, Stellaria media); conditions: Postemergence
Procedure, shortened: as §1

[4] = tested on: black mustard (Brassica nigra)
Procedure, shortened: as §1

[5] = tested on: large crabgrass (Digitaria sanguinalis)
Procedure, shortened: as §1

[6] = tested on: signalgrass (broadleaf signalgrass, Brachiaria platyphylla)
Procedure, shortened: as §1

[7] = tested on: purslane (common purslane, Portulaca oleracea)
Procedure, shortened: as §1

[8] = tested on: goosegrass (Eleusine indica)
Procedure, shortened: as §1

[9] = tested on: Italian ryegrass (Lolium multiflorum)
Procedure, shortened: as §1

kochia (Kochia scoparia) = tested on: kochia (Kochia scoparia)
Procedure, shortened: as §1

[10] = tested on: guineagrass (Panicum maximum)
Procedure, shortened: as §1

[11] = tested on: ragweed (common ragweed, Ambrosia elatior)
Procedure, shortened: as §1

[12] = tested on: spanishneedles (Bidens bipinnata)
Procedure, shortened: as §1

[13] = tested on: green foxtail (Setaria viridis)
Procedure, shortened: as §1

[14] = tested on: groundsel (common groundsel, Senecio vulgaris); conditions: Postemergence
Procedure, shortened: as §1

[15] = tested on: johnsongrass (Sorghum halepense)
Procedure, shortened: as §1

[16] = tested on: barnyardgrass (Echinochloa crus-galli)
Procedure, shortened: as §1

[17] = tested on: morningglory (pitted morningglory, Ipomoea lacunosa)
Procedure, shortened: as §1

[18] = Postemergence, 31 g ai/ha, scale 0 to 100
[19] = Postemergence, 62 g ai/ha, scale 0 to 100 (0 no effect, 100 complete control)
[20] = Postemergence, 125 g ai/ha, scale 0 to 100 (0 no effect, 100 complete control)
[21] = Postemergence, 16 g ai/ha, scale 0 to 100
[22] = Preemergence, 16 g ai/ha, scale 0 to 100, 0 no effect, 100 complete control
[23] = Preemergence, 31 g ai/ha, scale 0 to 100 (0 no effect, 100 complete control)
[24] = Preemergence, 125 g ai/ha, scale 0 to 100
[25] = Preemergence, 62 g ai/ha, scale 0 to 100
[26] = 62 g ai/ha, scale 0 to 100 (0 no effect, 100 complete control)
[27] = Postemergence, 31 g ai/ha, scale 0 to 100 (0 no effect, 100 complete control)

O=C1CCCC(O)=C1C(=O)c1cnc(-c2ccccc2)n(CC2CCCO2)c1=O (centres unmarked) [Compound 59]
35: Plant response rating, Surinam Grass [1, 18] | Plant response rating, Crabgrass, Large [5, 18] | Plant response rating, Crabgrass, Large [5, 21] | Plant response rating, Crabgrass, Large [5, 23] | Plant response rating, Crabgrass, Large [5, 25] | Plant response rating, Purslane [7, 18] | Plant response rating, Purslane [7, 19] | Plant response rating, Purslane [7, 21] | Plant response rating, Foxtail, Green [13, 20] | Plant response rating, Johnsongrass [15, 18] | Plant response rating, Johnsongrass [15, 24]
100: Plant response rating, Surinam Grass [1, 24] | Plant response rating, Black Mustard [4, 24] | Plant response rating, Purslane [7, 23] | Plant response rating, Purslane [7, 25] | Plant response rating, Purslane [7, 24] | Plant response rating, Ragweed [11, 24] | Plant response rating, Groundsel [14, 26] | Plant response rating, Groundsel ([14]; 125 g ai/ha, scale 0 to 100 (0 no effect, 100 complete control))
98: Plant response rating, Black Mustard [4, 20]
70: Plant response rating, Chickweed ([3]; 31 g ai/ha, scale 0 to 100) | Plant response rating, Chickweed [3, 26] | Plant response rating, Crabgrass, Large [5, 20] | Plant response rating, Ragweed [11, 18] | Plant response rating, Ragweed [11, 21] | Plant response rating, Spanishneedles [12, 19] | Plant response rating, Spanishneedles [12, 20] | Plant response rating, Groundsel ([14]; 16 g ai/ha, scale 0 to 100)
60: Plant response rating, Surinam Grass [1, 20] | Plant response rating, Black Mustard [4, 25] | Plant response rating, Johnsongrass [15, 20] | Plant response rating, Barnyardgrass [16, 27] | Plant response rating, Barnyardgrass [16, 19]
20: Plant response rating, Nutsedge, Purple [2, 19] | Plant response rating, Nutsedge, Purple [2, 23] | Plant response rating, Nutsedge, Purple [2, 25] | Plant response rating, Black Mustard [4, 22] | Plant response rating, Signalgrass [6, 20] | Plant response rating, Goosegrass [8, 18] | Plant response rating, Goosegrass [8, 21] | Plant response rating, Goosegrass [8, 25] | Plant response rating, Ryegrass, Italian [9, 24] | Plant response rating, Kochia (kochia (Kochia scoparia); [19]) | Plant response rating, Guineagrass [10, 19] | Plant response rating, Guineagrass [10, 20] | Plant response rating, Foxtail, Green [13, 19]
65: Plant response rating, Black Mustard [4, 19] | Plant response rating, Crabgrass, Large [5, 24] | Plant response rating, Purslane [7, 22] | Plant response rating, Goosegrass [8, 20]
40: Plant response rating, Black Mustard [4, 27] | Plant response rating, Black Mustard [4, 23] | Plant response rating, Johnsongrass [15, 19] | Plant response rating, Barnyardgrass [16, 21] | Plant response rating, Morningglory [17, 18]
75: Plant response rating, Barnyardgrass [16, 20]
90: Plant response rating, Surinam Grass [1, 23] | Plant response rating, Spanishneedles [12, 24] | Plant response rating, Groundsel ([14]; 31 g ai/ha, scale 0 to 100)
5: Plant response rating, Surinam Grass [1, 22] | Plant response rating, Signalgrass [6, 18] | Plant response rating, Signalgrass [6, 21] | Plant response rating, Signalgrass [6, 24] | Plant response rating, Goosegrass [8, 23] | Plant response rating, Ryegrass, Italian [9, 19] | Plant response rating, Ryegrass, Italian [9, 20] | Plant response rating, Kochia (kochia (Kochia scoparia); [18]) | Plant response rating, Kochia (kochia (Kochia scoparia); [21]) | Plant response rating, Foxtail, Green [13, 18]
0: Plant response rating, Nutsedge, Purple [2, 18] | Plant response rating, Nutsedge, Purple [2, 21] | Plant response rating, Nutsedge, Purple [2, 22] | Plant response rating, Crabgrass, Large [5, 22] | Plant response rating, Signalgrass [6, 22] | Plant response rating, Signalgrass [6, 23] | Plant response rating, Goosegrass [8, 22] | Plant response rating, Ryegrass, Italian [9, 18] | Plant response rating, Ryegrass, Italian [9, 21] | Plant response rating, Ryegrass, Italian [9, 22] | Plant response rating, Ryegrass, Italian [9, 23] | Plant response rating, Kochia (kochia (Kochia scoparia); [22]) | Plant response rating, Kochia (kochia (Kochia scoparia); [23]) | Plant response rating, Kochia (kochia (Kochia scoparia); [25]) | Plant response rating, Kochia (kochia (Kochia scoparia); [24]) | Plant response rating, Guineagrass [10, 22] | Plant response rating, Guineagrass [10, 23] | Plant response rating, Guineagrass [10, 25] | Plant response rating, Guineagrass [10, 24] | Plant response rating, Ragweed [11, 22] | Plant response rating, Spanishneedles [12, 22] | Plant response rating, Spanishneedles [12, 23] | Plant response rating, Foxtail, Green [13, 21] | Plant response rating, Foxtail, Green [13, 22] | Plant response rating, Foxtail, Green [13, 23] | Plant response rating, Foxtail, Green [13, 25] | Plant response rating, Foxtail, Green [13, 24] | Plant response rating, Johnsongrass [15, 22] | Plant response rating, Johnsongrass [15, 23] | Plant response rating, Barnyardgrass [16, 22] | Plant response rating, Barnyardgrass [16, 23] | Plant response rating, Barnyardgrass [16, 25] | Plant response rating, Morningglory [17, 21] | Plant response rating, Morningglory [17, 22] | Plant response rating, Morningglory [17, 23] | Plant response rating, Morningglory [17, 25]
25: Plant response rating, Nutsedge, Purple [2, 20]
10: Plant response rating, Black Mustard [4, 21] | Plant response rating, Signalgrass [6, 19] | Plant response rating, Guineagrass [10, 18] | Plant response rating, Guineagrass [10, 21] | Plant response rating, Johnsongrass [15, 25] | Plant response rating, Barnyardgrass [16, 24]
30: Plant response rating, Surinam Grass [1, 21] | Plant response rating, Spanishneedles [12, 21] | Plant response rating, Johnsongrass [15, 21]
80: Plant response rating, Nutsedge, Purple [2, 24] | Plant response rating, Goosegrass [8, 24] | Plant response rating, Ragweed [11, 20] | Plant response rating, Morningglory [17, 24]
50: Plant response rating, Surinam Grass [1, 19] | Plant response rating, Crabgrass, Large [5, 19] | Plant response rating, Purslane [7, 20] | Plant response rating, Goosegrass [8, 19] | Plant response rating, Kochia (kochia (Kochia scoparia); [20]) | Plant response rating, Ragweed [11, 23] | Plant response rating, Spanishneedles [12, 18] | Plant response rating, Morningglory [17, 19] | Plant response rating, Morningglory [17, 20]
